In article PMC10879502, “Linking ATP and allosteric sites to achieve superadditive binding with bivalent EGFR kinase inhibitors” (Communications Chemistry, 2024):

Legend:
Assay in all cases: KINOMEscan
Type in all cases: binding
Conditions in all cases: 1 μM
EPHA6 = EPHA6 (Homo sapiens, UniProt Q9UF33)
BIKE = BIKE (Homo sapiens, UniProt Q9NSY1)
FER = FER (Homo sapiens, UniProt P16591)
SGK = SGK (Homo sapiens, UniProt O00141)
KIT(D816V) = biological target: T1, KIT(D816V) (Homo sapiens, UniProt P10721, D816V)
T1 construct: purchased Eurofins DiscoverX (KINOMEscan)

PIK3CA(E545A) = PIK3CA(E545A) (Homo sapiens, UniProt P42336, E545A)
MYLK = biological target: T2, MYLK (Homo sapiens, UniProt Q15746)
T2 construct: purchased Eurofins DiscoverX Corporation

TIE2 = biological target: T3, TIE2 (Homo sapiens, UniProt Q02763)
T3 construct: purchased Eurofins DiscoverX Corporation

SIK2 = SIK2 (Homo sapiens, UniProt Q9H0K1)
CSNK2A2 = biological target: T4, CSNK2A2 (Homo sapiens, UniProt P19784)
T4 construct: purchased Eurofins DiscoverX Corporation
T4 sequence (P19784 whole entry): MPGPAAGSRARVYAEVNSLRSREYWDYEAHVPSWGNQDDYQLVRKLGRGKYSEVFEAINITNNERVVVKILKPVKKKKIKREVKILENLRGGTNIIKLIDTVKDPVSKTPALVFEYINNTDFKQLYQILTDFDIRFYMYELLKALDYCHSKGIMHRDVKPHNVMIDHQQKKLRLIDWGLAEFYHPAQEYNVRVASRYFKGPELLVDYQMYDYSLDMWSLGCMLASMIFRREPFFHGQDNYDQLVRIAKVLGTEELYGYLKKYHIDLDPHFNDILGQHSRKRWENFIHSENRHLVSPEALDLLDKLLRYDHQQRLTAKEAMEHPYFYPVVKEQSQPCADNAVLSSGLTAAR

CSF1R = CSF1R (Homo sapiens, UniProt P07333)
ABL1-nonphosphorylated = biological target: T5, ABL1-nonphosphorylated (Homo sapiens, UniProt P00519)
T5 construct: purchased Eurofins DiscoverX Corporation

DAPK1 = biological target: T6, DAPK1 (Homo sapiens, UniProt P53355)
T6 construct: purchased Eurofins DiscoverX Corporation
T6 sequence (P53355 whole entry): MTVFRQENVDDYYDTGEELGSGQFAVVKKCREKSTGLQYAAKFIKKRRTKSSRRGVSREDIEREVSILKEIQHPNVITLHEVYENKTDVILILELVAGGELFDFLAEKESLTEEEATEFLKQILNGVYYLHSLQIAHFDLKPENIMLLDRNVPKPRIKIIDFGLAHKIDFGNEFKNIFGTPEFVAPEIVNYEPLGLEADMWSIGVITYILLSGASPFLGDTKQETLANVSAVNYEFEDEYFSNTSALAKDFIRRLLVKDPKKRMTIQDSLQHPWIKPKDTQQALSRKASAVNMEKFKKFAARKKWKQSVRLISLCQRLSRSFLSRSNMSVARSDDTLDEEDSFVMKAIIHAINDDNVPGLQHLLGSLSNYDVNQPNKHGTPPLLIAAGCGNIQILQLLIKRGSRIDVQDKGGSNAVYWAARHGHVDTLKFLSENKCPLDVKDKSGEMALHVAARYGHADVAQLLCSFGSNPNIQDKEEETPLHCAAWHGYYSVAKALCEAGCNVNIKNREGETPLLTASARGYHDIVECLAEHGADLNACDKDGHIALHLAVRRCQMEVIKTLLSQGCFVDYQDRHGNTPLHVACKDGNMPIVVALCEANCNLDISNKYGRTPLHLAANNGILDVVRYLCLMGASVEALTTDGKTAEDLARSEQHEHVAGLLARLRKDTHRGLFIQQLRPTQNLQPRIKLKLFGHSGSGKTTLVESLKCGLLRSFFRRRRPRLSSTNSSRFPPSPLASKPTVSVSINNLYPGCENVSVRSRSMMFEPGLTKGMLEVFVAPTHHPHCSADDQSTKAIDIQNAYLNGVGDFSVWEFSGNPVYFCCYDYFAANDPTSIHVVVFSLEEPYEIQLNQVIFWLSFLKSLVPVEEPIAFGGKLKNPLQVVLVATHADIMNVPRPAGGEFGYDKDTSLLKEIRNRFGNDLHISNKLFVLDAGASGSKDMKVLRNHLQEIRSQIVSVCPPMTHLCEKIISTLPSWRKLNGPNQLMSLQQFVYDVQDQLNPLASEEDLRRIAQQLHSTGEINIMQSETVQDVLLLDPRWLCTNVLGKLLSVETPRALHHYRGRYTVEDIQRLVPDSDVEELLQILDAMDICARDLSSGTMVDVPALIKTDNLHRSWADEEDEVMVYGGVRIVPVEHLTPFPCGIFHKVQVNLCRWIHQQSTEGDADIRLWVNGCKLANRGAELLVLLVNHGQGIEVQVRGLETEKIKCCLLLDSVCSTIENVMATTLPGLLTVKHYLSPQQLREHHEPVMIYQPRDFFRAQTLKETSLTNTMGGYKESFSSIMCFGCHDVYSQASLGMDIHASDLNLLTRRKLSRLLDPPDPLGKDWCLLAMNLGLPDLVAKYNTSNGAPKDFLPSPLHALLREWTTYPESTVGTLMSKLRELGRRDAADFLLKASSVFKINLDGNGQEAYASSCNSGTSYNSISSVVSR

AAK1 = biological target: T7, AAK1 (Homo sapiens, UniProt Q2M2I8)
T7 construct: purchased Eurofins DiscoverX Corporation

TRPM6 = biological target: T8, TRPM6 (Homo sapiens, UniProt Q9BX84)
T8 construct: purchased Eurofins DiscoverX Corporation

PLK2 = PLK2 (Homo sapiens, UniProt Q9NYY3)
CDK7 = CDK7 (Homo sapiens, UniProt P50613)
KIT(V559D+T670I) = biological target: T9, KIT(V559D+T670I) (Homo sapiens, UniProt P10721, T670I/V559D)
T9 construct: purchased Eurofins DiscoverX Corporation

PRKCI = PRKCI (Homo sapiens, UniProt P41743)
PRKD3 = PRKD3 (Homo sapiens, UniProt O94806)
ACVR2A = ACVR2A (Homo sapiens, UniProt P27037)
LZK = biological target: T10, LZK (Homo sapiens, UniProt O43283)
T10 construct: purchased Eurofins DiscoverX Corporation

MAP4K2 = biological target: T11, MAP4K2 (Homo sapiens, UniProt Q12851)
T11 construct: purchased Eurofins DiscoverX Corporation

ALK = ALK (Homo sapiens, UniProt Q9UM73)
SBK1 = SBK1 (Homo sapiens, UniProt Q52WX2)
Sequence of SBK1 (Q52WX2 whole entry): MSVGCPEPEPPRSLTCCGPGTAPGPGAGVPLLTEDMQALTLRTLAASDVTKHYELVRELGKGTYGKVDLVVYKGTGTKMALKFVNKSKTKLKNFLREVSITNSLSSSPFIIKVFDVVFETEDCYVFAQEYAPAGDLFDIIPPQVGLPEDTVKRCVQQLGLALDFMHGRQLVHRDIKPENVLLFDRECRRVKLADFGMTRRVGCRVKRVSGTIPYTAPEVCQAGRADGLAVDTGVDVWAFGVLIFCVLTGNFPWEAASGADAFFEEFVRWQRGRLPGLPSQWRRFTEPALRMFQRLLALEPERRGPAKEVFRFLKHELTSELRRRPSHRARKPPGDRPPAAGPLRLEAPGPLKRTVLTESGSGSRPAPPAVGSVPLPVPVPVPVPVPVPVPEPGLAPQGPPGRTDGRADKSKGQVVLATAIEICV

PRKG2 = PRKG2 (Homo sapiens, UniProt Q13237)
IRAK4 = biological target: T12, IRAK4 (Homo sapiens, UniProt Q9NWZ3)
T12 construct: purchased Eurofins DiscoverX (KINOMEscan)
T12 sequence (Q9NWZ3 whole entry): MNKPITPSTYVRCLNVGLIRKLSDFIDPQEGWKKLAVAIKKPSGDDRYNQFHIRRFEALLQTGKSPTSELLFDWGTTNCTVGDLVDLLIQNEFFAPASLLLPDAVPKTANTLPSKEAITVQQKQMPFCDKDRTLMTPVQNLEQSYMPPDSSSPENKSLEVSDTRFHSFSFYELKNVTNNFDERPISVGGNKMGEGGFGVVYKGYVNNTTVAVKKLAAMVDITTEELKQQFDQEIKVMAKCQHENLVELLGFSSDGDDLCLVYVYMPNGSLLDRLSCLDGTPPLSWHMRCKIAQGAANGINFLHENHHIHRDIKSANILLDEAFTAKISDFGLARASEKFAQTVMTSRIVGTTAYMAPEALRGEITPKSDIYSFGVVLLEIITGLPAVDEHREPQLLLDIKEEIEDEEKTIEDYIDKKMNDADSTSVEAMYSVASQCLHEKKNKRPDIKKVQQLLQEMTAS

MET = biological target: T13, MET (Homo sapiens, UniProt P08581)
T13 construct: purchased Eurofins DiscoverX Corporation

PIM1 = PIM1 (Homo sapiens, UniProt P11309)
DYRK2 = biological target: T14, DYRK2 (Homo sapiens, UniProt Q92630)
T14 construct: purchased Eurofins DiscoverX Corporation

EPHA5 = EPHA5 (Homo sapiens, UniProt P54756)
CAMKK1 = biological target: T15, CAMKK1 (Homo sapiens, UniProt Q8N5S9)
T15 construct: purchased Eurofins DiscoverX Corporation (KINOMEscan)

PLK4 = PLK4 (Homo sapiens, UniProt O00444)
BTK = biological target: T16, BTK (Homo sapiens, UniProt Q06187)
T16 construct: purchased Eurofins DiscoverX Corporation (KINOMEscan)

SRMS = SRMS (Homo sapiens, UniProt Q9H3Y6)
FAK = FAK (Homo sapiens, UniProt Q05397)
INSRR = biological target: T17, INSRR (Homo sapiens, UniProt P14616)
T17 construct: purchased Eurofins DiscoverX (KINOMEscan)

Sequence of EPHA6 (Q9UF33 23-1036): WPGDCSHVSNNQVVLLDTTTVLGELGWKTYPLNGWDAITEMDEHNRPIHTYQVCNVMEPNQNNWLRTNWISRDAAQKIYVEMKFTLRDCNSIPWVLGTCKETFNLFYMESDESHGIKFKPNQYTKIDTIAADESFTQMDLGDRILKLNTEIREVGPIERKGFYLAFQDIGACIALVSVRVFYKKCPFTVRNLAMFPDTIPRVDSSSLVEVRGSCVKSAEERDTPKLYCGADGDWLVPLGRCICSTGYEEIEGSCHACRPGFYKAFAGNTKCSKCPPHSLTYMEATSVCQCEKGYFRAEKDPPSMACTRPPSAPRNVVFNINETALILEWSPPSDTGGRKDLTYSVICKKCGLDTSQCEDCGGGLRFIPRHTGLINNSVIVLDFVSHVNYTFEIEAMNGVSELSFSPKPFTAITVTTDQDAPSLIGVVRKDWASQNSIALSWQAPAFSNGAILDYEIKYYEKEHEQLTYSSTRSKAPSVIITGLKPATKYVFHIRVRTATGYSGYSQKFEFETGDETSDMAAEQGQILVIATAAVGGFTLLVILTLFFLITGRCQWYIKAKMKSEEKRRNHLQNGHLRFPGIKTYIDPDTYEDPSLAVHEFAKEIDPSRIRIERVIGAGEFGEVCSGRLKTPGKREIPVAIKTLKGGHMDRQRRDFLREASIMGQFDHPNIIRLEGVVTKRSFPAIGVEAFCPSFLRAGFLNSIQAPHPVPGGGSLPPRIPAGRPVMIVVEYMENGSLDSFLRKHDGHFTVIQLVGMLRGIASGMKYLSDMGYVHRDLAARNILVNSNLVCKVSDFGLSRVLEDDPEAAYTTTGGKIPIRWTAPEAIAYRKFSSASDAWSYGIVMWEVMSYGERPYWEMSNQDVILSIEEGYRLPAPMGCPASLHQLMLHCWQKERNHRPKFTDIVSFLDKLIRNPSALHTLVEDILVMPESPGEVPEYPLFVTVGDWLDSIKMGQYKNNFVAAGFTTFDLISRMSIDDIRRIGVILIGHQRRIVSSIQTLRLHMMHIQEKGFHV
Sequence of BIKE (Q9NSY1 whole entry): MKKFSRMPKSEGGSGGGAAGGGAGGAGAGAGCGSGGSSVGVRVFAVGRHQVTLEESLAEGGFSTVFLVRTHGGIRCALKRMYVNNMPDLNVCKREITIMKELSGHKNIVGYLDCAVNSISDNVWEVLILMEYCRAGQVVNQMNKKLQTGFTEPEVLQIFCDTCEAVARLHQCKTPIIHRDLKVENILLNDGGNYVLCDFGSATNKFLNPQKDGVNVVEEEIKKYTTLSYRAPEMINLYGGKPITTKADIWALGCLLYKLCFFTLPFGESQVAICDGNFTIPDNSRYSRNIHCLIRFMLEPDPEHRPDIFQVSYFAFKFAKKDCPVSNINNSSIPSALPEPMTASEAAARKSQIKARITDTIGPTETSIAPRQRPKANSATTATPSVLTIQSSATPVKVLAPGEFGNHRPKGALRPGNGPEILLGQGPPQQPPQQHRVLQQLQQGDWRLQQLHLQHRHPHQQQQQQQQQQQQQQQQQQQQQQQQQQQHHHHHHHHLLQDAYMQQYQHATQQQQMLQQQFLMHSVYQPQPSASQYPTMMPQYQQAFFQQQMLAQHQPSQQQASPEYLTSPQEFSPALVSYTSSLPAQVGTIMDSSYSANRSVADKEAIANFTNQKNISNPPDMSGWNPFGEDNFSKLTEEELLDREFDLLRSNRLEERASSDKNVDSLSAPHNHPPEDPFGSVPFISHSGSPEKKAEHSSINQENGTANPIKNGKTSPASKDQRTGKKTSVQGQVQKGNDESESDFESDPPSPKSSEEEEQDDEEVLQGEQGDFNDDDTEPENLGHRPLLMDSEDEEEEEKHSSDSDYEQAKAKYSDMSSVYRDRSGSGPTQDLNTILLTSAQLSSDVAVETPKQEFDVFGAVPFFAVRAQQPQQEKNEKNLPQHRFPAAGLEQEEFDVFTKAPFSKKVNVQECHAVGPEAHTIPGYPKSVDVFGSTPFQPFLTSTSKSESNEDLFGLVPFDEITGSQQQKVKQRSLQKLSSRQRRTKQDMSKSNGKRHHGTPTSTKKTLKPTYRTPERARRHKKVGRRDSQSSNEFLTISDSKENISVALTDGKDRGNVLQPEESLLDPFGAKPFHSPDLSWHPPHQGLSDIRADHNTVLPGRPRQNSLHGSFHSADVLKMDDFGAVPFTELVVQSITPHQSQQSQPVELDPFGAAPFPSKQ

## C=CC(=O)Nc1ccc(OC)c(Nc2cc(-c3[nH]c(CC)nc3-c3cccc(NC(=O)c4cccc5c4NC(=O)c4ccccc4N5)c3)ccn2)c1 [Compound 4]
EPHA6
  POC: 90% of control
BIKE
  POC: 100% of control
FER
  POC: 36% of control
SGK
  POC: 86% of control
KIT(D816V)
  POC: 94% of control
PIK3CA(E545A)
  POC: 100% of control
MYLK
  POC: 84% of control
TIE2
  POC: 71% of control
SIK2
  POC: 100% of control
CSNK2A2
  POC: 58% of control
CSF1R
  POC: 100% of control
ABL1-nonphosphorylated
  POC: 100% of control
DAPK1
  POC: 86% of control
AAK1
  POC: 100% of control
TRPM6
  POC: 99% of control
PLK2
  POC: 100% of control
CDK7
  POC: 49% of control
KIT(V559D+T670I)
  POC: 95% of control
PRKCI
  POC: 100% of control
PRKD3
  POC: 67% of control
ACVR2A
  POC: 77% of control
LZK
  POC: 90% of control
MAP4K2
  POC: 36% of control
ALK
  POC: 100% of control
SBK1
  POC: 84% of control
PRKG2
  POC: 62% of control
IRAK4
  POC: 43% of control
MET
  POC: 69% of control
PIM1
  POC: 94% of control
DYRK2
  POC: 75% of control
EPHA5
  POC: 100% of control
CAMKK1
  POC: 85% of control
PLK4
  POC: 71% of control
BTK
  POC: 54% of control
SRMS
  POC: 61% of control
FAK
  POC: 99% of control
INSRR
  POC: 87% of control
